Biological target: T1, HiBiT-tagged MDM2 (Homo sapiens, UniProt Q00987)
T1 construct: expressed in transfected cells
Assay: MDM2 HiBit HEK293T degradation
Assay type: cell-based
Details: HEK293T cells stably expressing C-terminally HiBiT-tagged MDM2; 4 h; read-out: MDM2 HiBit HEK293T degradation 4 h: Average external-Abs DC50
Protocol: HEK293T cells were grown overnight to 70-80% confluency in a 6-well plate in complete media (DMEM 10% FBS) in a 37° C. incubator with 5% CO2. Cells were transfected with 1 micrograms of C- or N-terminally HiBiT-tagged MDM2 constructs using Fugene 6 transfection reagent (Promega) as per manufacturer protocol. After overnight incubation at 37° C., growth media within the wells was replaced with selection media (DMEM+10% FBS+1 microgram/ml final concentration of Puromycin). Puromycin (selection antibiotic) concentrations required for complete cell kill were determined previously. Cells were monitored for the next 48h-96h to select for positively transfected cells. Surviving colonies were pooled and expanded in selection media. Expanded pools of HEK293T cells stably expressing C- and N-terminally HiBiT-tagged MDM2, were characterized using a MDM2 tool degrader and HaloPROTAC3 as positive control. HEK293T cells expressing C-terminally HiBiT-tagged MDM2 were subsequently used for assessment of degradation potencies for MDM2 degraders.
The letter codes for MDM2 degradation potency (DC50) include: A (<10 nM), B […], C (>100-1000 nM), and D (>1000 nM).

T1 sequence (Q00987 whole entry): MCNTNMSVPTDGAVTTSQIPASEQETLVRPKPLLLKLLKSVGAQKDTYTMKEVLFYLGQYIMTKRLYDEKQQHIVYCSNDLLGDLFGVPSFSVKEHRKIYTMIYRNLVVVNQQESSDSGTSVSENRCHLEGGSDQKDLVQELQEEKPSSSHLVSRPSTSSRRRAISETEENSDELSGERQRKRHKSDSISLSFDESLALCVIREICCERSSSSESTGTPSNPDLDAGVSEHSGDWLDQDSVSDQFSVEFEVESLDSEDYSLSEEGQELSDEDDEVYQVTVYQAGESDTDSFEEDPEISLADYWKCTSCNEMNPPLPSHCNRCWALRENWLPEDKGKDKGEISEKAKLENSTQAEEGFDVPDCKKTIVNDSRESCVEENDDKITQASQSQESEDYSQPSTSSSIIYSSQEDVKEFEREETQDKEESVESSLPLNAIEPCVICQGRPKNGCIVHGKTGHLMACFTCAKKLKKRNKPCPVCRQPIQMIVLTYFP

DC50 [nM] | SMILES
< 10 | C[C@H]1CN(C(=O)[C@H]2CC[C@H](NC(=O)[C@@H]3NC4(CCCCC4)[C@@]4(C(=O)Nc5cc(Cl)ccc54)[C@H]3c3cccc(Cl)c3F)CC2)CCN1CCc1ccc2c(c1)n(C)c(=O)n2C1CCC(=O)NC1=O (stereo partly shown) [I-121]
< 10 | C[C@@H]1CN(C(=O)[C@H]2CC[C@H](NC(=O)[C@@H]3NC4(CCCCC4)[C@@]4(C(=O)Nc5cc(Cl)ccc54)[C@H]3c3cccc(Cl)c3F)CC2)CCN1CCc1ccc2c(c1)n(C)c(=O)n2C1CCC(=O)NC1=O (stereo partly shown) [I-122]
< 10 | Cn1c(=O)n(C2CCC(=O)NC2=O)c2ccc(C3CC4(C3)CN(C[C@H]3CC[C@H](NC(=O)[C@@H]5NC6(CCCCC6)[C@@]6(C(=O)Nc7cc(Cl)ccc76)[C@H]5c5cccc(Cl)c5F)CC3)C4)cc21 (stereo partly shown) [I-123]
< 10 | Cn1c(=O)n(C2CCC(=O)NC2=O)c2ccc(N3CCN(C(=O)CN4CCC(NC(=O)[C@@H]5NC6(CCCCC6)[C@@]6(C(=O)Nc7cc(Cl)ccc76)[C@H]5c5cccc(Cl)c5F)CC4)CC3)cc21 (stereo partly shown) [I-125]
< 10 | CN(C(=O)[C@H]1CC[C@H](NC(=O)[C@@H]2NC3(CCCCC3)[C@@]3(C(=O)Nc4cc(Cl)ccc43)[C@H]2c2cccc(Cl)c2F)CC1)C1CCN(Cc2ccc3c(c2)n(C)c(=O)n3C2CCC(=O)NC2=O)CC1 (stereo partly shown) [I-127]
< 10 | Cn1c(=O)n(C2CCC(=O)NC2=O)c2ccc([C@H]3CC[C@H](CN4CCC(NC(=O)[C@@H]5NC6(CCCCC6)[C@@]6(C(=O)Nc7cc(Cl)ccc76)[C@H]5c5cccc(Cl)c5F)CC4)CC3)cc21 (stereo partly shown) [I-130]
100 to 1000 | Cn1c(=O)n(C2CCC(=O)NC2=O)c2ccc(CC3(C(=O)O)CCN(C(=O)[C@H]4CC[C@H](NC(=O)[C@@H]5NC6(CCCCC6)[C@@]6(C(=O)Nc7cc(Cl)ccc76)[C@H]5c5cccc(Cl)c5F)CC4)CC3)cc21 (stereo partly shown) [I-131]
100 to 1000 | Cn1c(=O)n(C2CCC(=O)NC2=O)c2ccc(CCCC3(CC(=O)O)CCN(C(=O)[C@H]4CC[C@H](NC(=O)[C@@H]5NC6(CCCCC6)[C@@]6(C(=O)Nc7cc(Cl)ccc76)[C@H]5c5cccc(Cl)c5F)CC4)CC3)cc21 (stereo partly shown) [I-132]
< 10 | Cn1c(=O)n(C2CCC(=O)NC2=O)c2ccc(CCCN3CCN(C(=O)[C@@H]4CC[C@@H](NC(=O)[C@@H]5NC6(CCCCC6)[C@@]6(C(=O)Nc7cc(Cl)ccc76)[C@H]5c5cccc(Cl)c5F)CO4)CC3)cc21 (stereo partly shown) [I-133]
< 10 | Cn1c(=O)n(C2CCC(=O)NC2=O)c2ccc(CCC(=O)N3CCN(C[C@H]4CC[C@H](NC(=O)[C@@H]5NC6(CCCCC6)[C@@]6(C(=O)Nc7cc(Cl)ccc76)[C@H]5c5cccc(Cl)c5F)CC4)CC3)cc21 (stereo partly shown) [I-134]
100 to 1000 | Cn1c(=O)n(C2CCC(=O)NC2=O)c2ccc(CN3CCN(C(=O)[C@H]4CC[C@H](NC(=O)[C@@H]5NC6(CCCCC6)[C@@]6(C(=O)Nc7cc(Cl)ccc76)[C@H]5c5cccc(Cl)c5F)CC4)C(C(=O)O)C3)cc21 (stereo partly shown) [I-135]
10 to 100 | Cn1c(=O)n(C2CCC(=O)NC2=O)c2ccc(CCCO[C@@H]3C[C@@H](C(=O)O)N(C(=O)[C@H]4CC[C@H](NC(=O)[C@@H]5NC6(CCCCC6)[C@@]6(C(=O)Nc7cc(Cl)ccc76)[C@H]5c5cccc(Cl)c5F)CC4)C3)cc21 (stereo partly shown) [I-136]
< 10 | Cn1c(=O)n(C2CCC(=O)NC2=O)c2ccc([C@H]3CC[C@H](N4CCC(NC(=O)[C@@H]5NC6(CCCCC6)[C@@]6(C(=O)Nc7cc(Cl)ccc76)[C@H]5c5cccc(Cl)c5F)CC4)CC3)cc21 (stereo partly shown) [I-138]
< 10 | Cn1c(=O)n(C2CCC(=O)NC2=O)c2ccc(N3CCC(N4CCC(NC(=O)[C@@H]5NC6(CCCCC6)[C@@]6(C(=O)Nc7cc(Cl)ccc76)[C@H]5c5cccc(Cl)c5F)CC4)CC3)cc21 (stereo partly shown) [I-139]
100 to 1000 | Cn1c(=O)n(C2CCC(=O)NC2=O)c2ccc(CCCO[C@@H]3C[C@H](C(=O)O)N(C(=O)[C@H]4CC[C@H](NC(=O)[C@@H]5NC6(CCCCC6)[C@@]6(C(=O)Nc7cc(Cl)ccc76)[C@H]5c5cccc(Cl)c5F)CC4)C3)cc21 (stereo partly shown) [I-141]
10 to 100 | Cn1c(=O)n(C2CCC(=O)NC2=O)c2ccc(N3CCN(C(=O)[C@H]4CC[C@H](NC(=O)[C@@H]5NC6(CCCCC6)[C@@]6(C(=O)Nc7cc(Cl)ccc76)[C@H]5c5cccc(Cl)c5F)CC4)C(C(=O)O)C3)cc21 (stereo partly shown) [I-142]
10 to 100 | Cn1c(=O)n(C2CCC(=O)NC2=O)c2ccc(O[C@@H]3C[C@@H](C(=O)O)N(C(=O)[C@H]4CC[C@H](NC(=O)[C@@H]5NC6(CCCCC6)[C@@]6(C(=O)Nc7cc(Cl)ccc76)[C@H]5c5cccc(Cl)c5F)CC4)C3)cc21 (stereo partly shown) [I-143]
< 10 | Cn1c(=O)n(C2CCC(=O)NC2=O)c2ccc(C3CCN(CCC(=O)N4CCC(NC(=O)[C@@H]5NC6(CCCCC6)[C@@]6(C(=O)Nc7cc(Cl)ccc76)[C@H]5c5cccc(Cl)c5F)CC4)CC3)cc21 (stereo partly shown) [I-146]
10 to 100 | Cn1c(=O)n(C2CCC(=O)NC2=O)c2ccc(CN3CCN(CCCN4CCC(NC(=O)[C@@H]5NC6(CCCCC6)[C@@]6(C(=O)Nc7cc(Cl)ccc76)[C@H]5c5cccc(Cl)c5F)CC4)CC3)cc21 (stereo partly shown) [I-147]

DC50 [nM] | SMILES
> 1000 | Cc1ncsc1-c1ccc(CNC(=O)[C@@H]2C[C@@H](O)CN2C(=O)[C@@H](NC(=O)CCCCC2CCN(C(=O)[C@H]3CC[C@H](NC(=O)[C@@H]4NC5(CCCCC5)[C@@]5(C(=O)Nc6cc(Cl)ccc65)[C@H]4c4cccc(Cl)c4F)CC3)CC2)C(C)(C)C)cc1 [I-148]
> 1000 | Cc1ncsc1-c1ccc(CNC(=O)[C@@H]2C[C@@H](O)CN2C(=O)[C@@H](NC(=O)C2(F)CC2)C(C)(C)C)c(OCCCCCCCCNC(=O)[C@H]2CC[C@H](NC(=O)[C@@H]3NC4(CCCCC4)[C@@]4(C(=O)Nc5cc(Cl)ccc54)[C@H]3c3cccc(Cl)c3F)CC2)c1 [I-149]
< 10 | Cn1c(=O)n(C2CCC(=O)NC2=O)c2ccc(CCN3CCN(CCN4CCC(NC(=O)[C@@H]5NC6(CCCCC6)[C@@]6(C(=O)Nc7cc(Cl)ccc76)[C@H]5c5cccc(Cl)c5F)CC4)CC3)cc21 (stereo partly shown) [I-151]
< 10 | Cn1c(=O)n(C2CCC(=O)NC2=O)c2cccc(C3CCN(CCN4CCC(NC(=O)[C@@H]5NC6(CCCCC6)[C@@]6(C(=O)Nc7cc(Cl)ccc76)[C@H]5c5cccc(Cl)c5F)CC4)CC3)c21 (stereo partly shown) [I-152]
< 10 | Cn1c(=O)n(C2CCC(=O)NC2=O)c2ccc(-c3ccc(CCN4CCC(NC(=O)[C@@H]5NC6(CCCCC6)[C@@]6(C(=O)Nc7cc(Cl)ccc76)[C@H]5c5cccc(Cl)c5F)CC4)cc3)cc21 (stereo partly shown) [I-154]
< 10 | Cn1c(=O)n(C2CCC(=O)NC2=O)c2ccc(C3CCN([C@H]4CC[C@H](N5CCC(NC(=O)[C@@H]6NC7(CCCCC7)[C@@]7(C(=O)Nc8cc(Cl)ccc87)[C@H]6c6cccc(Cl)c6F)CC5)CC4)CC3)cc21 (stereo partly shown) [I-155]
> 1000 | O=C1CCN(c2ccc(CCCCN3CCN(C(=O)[C@H]4CC[C@H](NC(=O)[C@@H]5NC6(CCCCC6)[C@@]6(C(=O)Nc7cc(Cl)ccc76)[C@H]5c5cccc(Cl)c5F)CC4)CC3)cc2)C(=O)N1 [I-156]
< 10 | Cn1c(=O)n(C2CCC(=O)NC2=O)c2ccc(C3CCN(C(=O)CN4CCC(NC(=O)[C@@H]5NC6(CCC(C)(C)CC6)[C@@]6(C(=O)Nc7cc(Cl)ccc76)[C@H]5c5ccnc(Cl)c5F)CC4)CC3)cc21 (stereo partly shown) [I-160]
100 to 1000 | O=C1CCN(c2cnc3cc(C4CCN(C(=O)CN5CCC(NC(=O)[C@@H]6NC7(CCCCC7)[C@@]7(C(=O)Nc8cc(Cl)ccc87)[C@H]6c6cccc(Cl)c6F)CC5)CC4)ccn23)C(=O)N1 [I-164]
10 to 100 | Cn1c(=O)n(C2CCC(=O)NC2=O)c2ccc(CN3CCN(CCN4CCC(NC(=O)[C@@H]5NC6(CCCCC6)[C@@]6(C(=O)Nc7cc(Cl)ccc76)[C@H]5c5cccc(Cl)c5F)CC4)CC3)cc21 (stereo partly shown) [I-167]
10 to 100 | Cn1c(=O)n(C2CCC(=O)NC2=O)c2ccc(C3CCN(C[C@H]4CC[C@H](NC(=O)[C@@H]5NC6(CCCCC6)[C@@]6(C(=O)Nc7cc(Cl)ccc76)[C@H]5c5cccc(Cl)c5F)CC4)C(C(=O)O)C3)cc21 (stereo partly shown) [I-168]
10 to 100 | O=C1CCN(c2cnc3cc(N4CCN(CCN5CCC(NC(=O)[C@@H]6NC7(CCCCC7)[C@@]7(C(=O)Nc8cc(Cl)ccc87)[C@H]6c6cccc(Cl)c6F)CC5)CC4)ccn23)C(=O)N1 [I-169]
10 to 100 | Cn1c(=O)n(C2CCC(=O)NC2=O)c2ccc(C3CCN(Cc4ccc(NC(=O)[C@@H]5NC6(CCCCC6)[C@@]6(C(=O)Nc7cc(Cl)ccc76)[C@H]5c5cccc(Cl)c5F)cc4C(=O)O)CC3)cc21 (stereo partly shown) [I-171]
< 10 | Cn1c(=O)n(C2CCC(=O)NC2=O)c2ccc(C3(O)CCN(C[C@H]4CC[C@H](NC(=O)[C@@H]5NC6(CCCCC6)[C@@]6(C(=O)Nc7cc(Cl)ccc76)[C@H]5c5cccc(Cl)c5F)CC4)CC3)cc21 (stereo partly shown) [I-194]
10 to 100 | Cn1c(=O)n(C2CCC(=O)NC2=O)c2ccc(CN3CCN(C[C@H]4CC[C@H](NC(=O)[C@@H]5NC6(CCCCC6)[C@@]6(C(=O)Nc7cc(Cl)ccc76)[C@H]5c5cccc(Cl)c5F)CC4)C(C(=O)O)C3)cc21 (stereo partly shown) [I-196]
< 10 | Cn1c(=O)n(C2CCC(=O)NC2=O)c2ccc(CCN3CCN(C[C@H]4CC[C@H](NC(=O)[C@@H]5NC6(CCCCC6)[C@@]6(C(=O)Nc7cc(Cl)ccc76)[C@H]5c5cccc(Cl)c5F)CC4)C(C(=O)O)C3)cc21 (stereo partly shown) [I-197]
100 to 1000 | Cn1c(=O)n(C2CCC(=O)NC2=O)c2ccc(CCCO[C@@H]3C[C@@H](C(=O)O)N(C[C@H]4CC[C@H](NC(=O)[C@@H]5NC6(CCCCC6)[C@@]6(C(=O)Nc7cc(Cl)ccc76)[C@H]5c5cccc(Cl)c5F)CC4)C3)cc21 (stereo partly shown) [I-198]
10 to 100 | Cn1c(=O)n(C2CCC(=O)NC2=O)c2ccc(CCCO[C@@H]3C[C@H](C(=O)O)N(C[C@H]4CC[C@H](NC(=O)[C@@H]5NC6(CCCCC6)[C@@]6(C(=O)Nc7cc(Cl)ccc76)[C@H]5c5cccc(Cl)c5F)CC4)C3)cc21 (stereo partly shown) [I-199]
